Series [1] can be described thus: Solubility at tested concentrations in fragment library screening. The format is physicochemical. An excerpt:
Supplement IENZ_A_2149745_SM2502.zip/DDlB_CDR05_SI_20221103.xlsx, sheet "Fragment library screening" | column: Solubility at tested concentrations

Series [2] addresses T1, E. coli DdlB enzyme (D-alanine:D-alanine ligase) (Escherichia coli, UniProt P07862).
T1 construct: made in house; host or cells: E. coli
Nature of the series: biochemical. Conditions: for remaining activity at 5000 µM: at 5 mM; for remaining activity at 2200 µM: tested concentration 2.2 mM; for remaining activity at 2100 µM: tested concentration 2.1 mM; for remaining activity at 2000 µM: tested concentration 2.0 mM; for pIC50: 700 μM D-Ala, 100 μM ATP, read-out: DdlB inhibition IC50; for remaining activity at 1700 µM: tested concentration 1.7 mM; for remaining activity at 1800 µM: tested concentration 1.8 mM.

In series [3] the target is E. coli MurA enzyme (UDP-N-acetylglucosamine enolpyruvyl transferase) (Escherichia coli, UniProt P0A749). In words: MurA inhibition assay (malachite green, deselection). Conditions: read-out: MurA inhibition, RA (Residual Activity).
Procedure: Inhibition of the enzyme was determined using an end-point malachite green assay by detecting the orthophosphate formed during the enzymatic reaction. […] The final DMSO concentration was 5%. […] A parallel experiment without the enzyme was performed to detect insoluble compounds under the assay conditions and subtracted from each measurement. All experiments were performed in duplicates. RAs were calculated with respect to blank experiments without tested compounds and with 5% DMSO.
For another series, the system named is S. aureus ATCC 29213. In words: MIC by broth microdilution. The format is cell-based. Conditions: Staphylococcus aureus, ATCC29213; S. aureus ATCC 29213, 20 h at 35 °C; read-out: MIC. As for the experimental part:
(§1) The antibacterial activities of 3 were determined according to the European Committee for […] Susceptibility Testing recommendations and Clinical Laboratory Standards Institute protocol. Compound was tested against reference strains of E. coli and Staphylococcus aureus and against two mutant E. coli strains. E. coli D22 bears a mutation in the LpxC gene that increases membrane permeability, whereas E. coli N43 is an AcrA knockout strain (knockout of the cell membrane pump). […] The most plausible reason is the low on target activity of the hit fragment, however, also the poor penetration into the bacterial cell or efflux pumps effect cannot be ruled out. Although the lack of antibacterial activity is a limitation, hit compound 3 represents a fragment-sized starting point for the development of new compounds with increased DdlB inhibitory potency as well as antibacterial activity.
(§2) Minimum inhibitory concentrations (MICs) for 3 were determined by broth microdilution in Cation-adjusted Mueller-Hinton broth (MH) with TES, TREK Diagnostic Systems Ltd. against S. aureus ATCC 29213, E. coli ATCC 25922, E. coli N43 and E. coli D22. All of the experiments were performed in duplicate in 96-well plate format according to CLSI guidelines and European Committee for Antimicrobial Susceptibility Testing recommendations. The bacterial suspension of a specific bacterial strain was diluted with MH broth to obtain a final inoculum of 5 × 10^5 CFU/mL in the assay. Compound 3 dissolved in DMSO and inoculum were mixed together and incubated for 20 h at 35 °C. After incubation, the minimal inhibitory concentration (MIC) values were determined by visual inspection as the lowest dilution of compounds showing no turbidity. The MICs were determined against S. aureus (ATCC 29213), E. coli (ATCC 25922), E. coli N43, and E. coli D22 bacterial strains. D-Cycloserine was used as a positive control.
On the technique in general: Dilution methods test growth across graded concentrations, often in twofold steps.

For the next series, the system named is E. coli ATCC 25922. Nature of the series: MIC by broth microdilution. The format is cell-based. Conditions: Escherichia coli, ATCC25922; E. coli ATCC 25922, 20 h at 35 °C; read-out: MIC. The protocol:
as §1, §2

The subject of the next series is E. coli N43. In words: MIC by broth microdilution. The format is cell-based. Conditions: Escherichia coli, N43, 20 h. As for the experimental part:
as §1, §2

For the next series, the system named is E. coli D22. Nature of the series: MIC by broth microdilution. Conditions: Escherichia coli, D22, 20 h. The format is cell-based. The protocol: as §1, §2
The mark [4] stands for this setting: read-out: DdlB inhibition, RA (Residual Activity).
Setting [5] is: residual activity, read-out: DdlB RA.

pIC50: −log10 of the molar value. In brackets after ≈: the same amount, converted by molar mass. Like-named read-outs stand apart in the source and are kept apart here.

Sequence of E. coli MurA enzyme (UDP-N-acetylglucosamine enolpyruvyl transferase) (P0A749 whole entry): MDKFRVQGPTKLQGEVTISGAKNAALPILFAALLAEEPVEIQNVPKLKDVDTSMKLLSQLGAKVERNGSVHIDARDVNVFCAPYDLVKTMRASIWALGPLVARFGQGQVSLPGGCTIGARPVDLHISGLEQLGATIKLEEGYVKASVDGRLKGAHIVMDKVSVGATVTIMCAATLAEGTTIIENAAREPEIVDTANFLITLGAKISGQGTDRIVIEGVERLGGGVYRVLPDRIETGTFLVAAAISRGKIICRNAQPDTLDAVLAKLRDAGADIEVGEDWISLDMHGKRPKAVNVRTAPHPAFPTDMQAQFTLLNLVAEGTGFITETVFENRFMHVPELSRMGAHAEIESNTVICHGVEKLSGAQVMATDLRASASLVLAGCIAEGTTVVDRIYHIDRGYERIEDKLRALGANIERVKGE

In the case of `OC1CCCc2c1[nH]c1ccc(Br)cc21` (centres unmarked) [Compound 8010-6263], in series [1] (tested concentration 1.9 mM), the “Solubility at tested concentrations” value is given as “not soluble”. Also, the remaining activity at 1900 µM in series [2] (residual activity, tested concentration 1.9 mM, read-out: DdlB RA) was found to be 29%.
For `COCc1cn(C2CNC2)nn1` [Compound 8], the remaining activity at 5000 µM in series [3] turned out to be 100%; in series [2] (setting [4]), 95%.
`CCc1cc(C(=O)N2CC3(C)CC2CC(C)(C)C3)no1` (centres unmarked) [Compound C226-2780]: the “Solubility at tested concentrations” value in series [1] (tested concentration 2.2 mM) is “not soluble”. Further, the remaining activity at 2200 µM in series [2] (setting [5]) stood at 25%.
Regarding `CN1CCN(S(=O)(=O)c2cccc3cccnc23)CC1` [Compound 8006-7667], the “Solubility at tested concentrations” value in series [1] (tested concentration 2.1 mM) is “not soluble”. Also, the remaining activity at 2100 µM in series [2] (setting [5]) stood at 60%.
Take `CN(C(=O)c1cc[nH]n1)C1CC(C)(C)N(C)C(C)(C)C1` [Compound 8013-1135]: the “Solubility at tested concentrations” value in series [1] (tested concentration 2.0 mM) is recorded as “not soluble”. The remaining activity at 2000 µM in series [2] (setting [5]) was -1.26%.
Regarding `N[C@@H]1CON=C1O` [D-Cyclo-serine, D-Cycloserine, reference compound], the MIC (in general, the smallest concentration in the dilution series that meets the test's criterion for growth inhibition) in the series with S. aureus ATCC 29213 turned out to be 32 µg/mL (≈ 313 µM); with E. coli ATCC 25922, 64 µg/mL (≈ 627 µM); in the series on E. coli N43 it was 32 µg/mL (≈ 313 µM); against E. coli D22 it was 16 µg/mL (≈ 157 µM). In series [2], the pIC50 – broadly, the IC50 on a negative log10 scale, so that one unit is a factor of ten – was 3.97.
On to `COc1cccc(NC2=NS(=O)(=O)c3ccccc32)c1` [Compound 8005-1580], for which, in series [1] (tested concentration 1.7 mM), the “Solubility at tested concentrations” value is reported as “not soluble”. Moreover, the remaining activity at 1700 µM in series [2] (setting [5]) worked out at 50%.
With `CC1CCN(C(=O)CC2(n3cccc3)CCCCC2)CC1` [Compound Y042-5984], the “Solubility at tested concentrations” value in series [1] (tested concentration 1.7 mM) is recorded as “not soluble”. In addition, the remaining activity at 1700 µM in series [2] (setting [5]) stood at 90%.
`CCOc1ccc2c(n1)CCN(C(=O)c1ccccn1)C2` [Compound 6, (2-Ethoxy-7,8-dihydro-1,6-naphthyridin-6(5H)-yl)(pyridin-2-yl)methanone]: the remaining activity at 5000 µM was found to be 104% in series [3] and 25% in series [2] (setting [4]). For the same compound, the remaining activity at 2100 µM in series [2] (setting [5]) was 44%.
Take `O=C(O)c1cc(-c2ccccc2)nc2c(Cl)cnn12` [Compound Y504-7719]: the “Solubility at tested concentrations” value in series [1] (tested concentration 2.2 mM) was “not soluble”. Also, the remaining activity at 2200 µM in series [2] (setting [5]) is 90%.
On to `O=C(O)c1cnc2ccc(OC(F)(F)F)cc2c1O` [Compound Y042-3162], for which, in series [1] (tested concentration 1.8 mM), the “Solubility at tested concentrations” value is recorded as “not soluble”. In series [2] (fragment library screening, read-out: DdlB RA), the remaining activity at 1800 µM is -5%.
For `Cc1noc(C)c1C(=O)NCC1Cn2cccc2CN1C` (centres unmarked) [Compound 5], the remaining activity at 5000 µM in series [3] is 6%. In series [2] (at 2.5 mM, read-out: DdlB inhibition, RA (Residual Activity)), the remaining activity at 2500 µM is 28%.
`O=S(=O)(c1ccccc1)N1CCOc2ccccc21` [Compound Z606-0391]: the “Solubility at tested concentrations” value in series [1] (tested concentration 2.0 mM) was “not soluble”. Also, the remaining activity at 2000 µM in series [2] (setting [5]) came out at 97%.
`Cc1ccccc1N(C)C(=O)Cc1noc2ccccc12` [Compound E207-0386]: in series [1] (tested concentration 2.1 mM), the “Solubility at tested concentrations” value is “not soluble”. The remaining activity at 2100 µM in series [2] (setting [5]) was 102%.
For `O=C(Nc1ccccc1F)NC1COc2ccccc2C1` (centres unmarked) [Compound G765-0058], the “Solubility at tested concentrations” value in series [1] (tested concentration 1.7 mM) is “not soluble”. Besides, the remaining activity at 1700 µM in series [2] (setting [5]) is 93%.
In the case of `Cc1ccccc1S(=O)(=O)Nc1cnc2c(c1)CCC2` [Compound T157-0058], the “Solubility at tested concentrations” value in series [1] (tested concentration 2.1 mM) is reported as “not soluble”. In addition, the remaining activity at 2100 µM in series [2] (setting [5]) is 48%.
As for `CC1CCCC(NC(=O)c2ccc(Cl)cc2)C1C` (centres unmarked) [Compound Y502-2265], the “Solubility at tested concentrations” value in series [1] (tested concentration 2.3 mM) is on record as “not soluble”. In addition, the remaining activity at 2300 µM in series [2] (residual activity, tested concentration 2.3 mM, read-out: DdlB RA) stood at 91%.
On to `CC(C)(C)OC(=O)NCc1cccc(-c2cncs2)c1` [Compound V029-2538], for which the “Solubility at tested concentrations” value in series [1] (tested concentration 1.7 mM) was “not soluble”. Further, the remaining activity at 1700 µM in series [2] (setting [5]) was 69%.
`COC(=O)c1cc2occc2n1Cc1ccccc1Cl` [Compound C777-0071]: the “Solubility at tested concentrations” value in series [1] (tested concentration 1.7 mM) is on record as “not soluble”. In series [2] (setting [5]), the remaining activity at 1700 µM worked out at 82%.
Regarding `CC1c2cccn2CCN1C(=O)Nc1ccccc1Cl` (centres unmarked) [Compound G551-0008], in series [1] (tested concentration 1.7 mM), the “Solubility at tested concentrations” value is on record as “not soluble”. Also, in series [2] (setting [5]), the remaining activity at 1700 µM was found to be 112%.
Regarding `Nc1ccc2ncc(C(=O)O)c(O)c2c1` [Compound 7, 6-Amino-4-hydroxyquinoline-3-carboxylic acid], the results for the remaining activity at 5000 µM in series [3] and in series [2] (setting [4]) were 81% and 47%, respectively.
As to `CCc1ccc(C2Nc3ccccc3S(=O)(=O)N2)cc1` (centres unmarked) [Compound F475-0262], the “Solubility at tested concentrations” value in series [1] (tested concentration 2.1 mM) was “not soluble”. Moreover, the remaining activity at 2100 µM in series [2] (setting [5]) was 68%.
For `O=S(=O)(Cc1ccc(Cl)cc1)N1CCOCC1` [Compound Y031-1160], the “Solubility at tested concentrations” value in series [1] (tested concentration 2.2 mM) is reported as “not soluble”. Also, in series [2] (setting [5]), the remaining activity at 2200 µM turned out to be 118%.
`O=C(NCCc1ccco1)C1COc2ccccc2C1` (centres unmarked) [Compound G668-0290]: the “Solubility at tested concentrations” value in series [1] (tested concentration 2.2 mM) is on record as “not soluble”. In addition, in series [2] (setting [5]), the remaining activity at 2200 µM came to 70%.
On to `O=S(=O)(NC1CCCCCC1)c1ccc(F)cc1` [Compound Y030-0828], for which, in series [1] (tested concentration 2.0 mM), the “Solubility at tested concentrations” value was “not soluble”. Also, the remaining activity at 2000 µM in series [2] (setting [5]) came to 89%.
`COc1ccc(-n2c(C)ccc2C)nc1` [Compound 4]: the remaining activity at 5000 µM in series [3] amounted to 39%. In addition, the pIC50 in series [2] was 2.75.
As to `CC(C)Oc1n[nH]c(-c2ccc(Cl)cc2Cl)n1` [Compound V017-7311], in series [1] (tested concentration 2.2 mM), the “Solubility at tested concentrations” value is reported as “not soluble”. Moreover, the remaining activity at 2200 µM in series [2] (setting [5]) is 98%.
Regarding `O=C1COc2ccccc2N1Cc1ccc2c(c1)OCO2` [Compound 8018-5756], the “Solubility at tested concentrations” value in series [1] (tested concentration 1.8 mM) is reported as “not soluble”. For the same compound, the remaining activity at 1800 µM in series [2] (setting [5]) stood at 103%.
Regarding `Cc1ccc(S(=O)(=O)N(C)CC2CCOC2)c(C)c1` (centres unmarked) [Compound S213-1641], in series [1] (tested concentration 2.1 mM), the “Solubility at tested concentrations” value is on record as “not soluble”. The remaining activity at 2100 µM in series [2] (setting [5]) came to 110%.

These data come from PMC9718554, “Discovery of a fragment hit compound targeting D-Ala:D-Ala ligase of bacterial peptidoglycan biosynthesis” (Journal of Enzyme Inhibition and Medicinal Chemistry, 2022).
